# In US20180282279A1, “Pantothenamide Analogues” (Radboud Universitair Medisch Centrum, priority 2014, published 2018):
# Read-outs that look alike come from different tables or passages of the source.
# Legend:
# Streptococcus pyogenes = assay: Bacterial growth assay and MIC determination, S. pyogenes; type: cell-based; settings: S. pyogenes, serum −
# Method: (§1) Strains of Escherichia coli, Staphylococcus aureus and Staphylococcus epidermidis, were grown overnight in 1% Bacto tryptone medium (BD, Sparks, Md.). Streptococcus pyogenes was grown overnight in Bacto Todd Hewitt Broth medium (BD, Sparks, Md.). Cultures were then diluted 1:1,000 in fresh assay medium supplemented with or without 20% fetal bovine serum (FBS; HyClone, Celbio, Logan, Utah) and added to 96-well sterile enzyme-linked immunosorbent assay (ELISA) plates (100 μl per well). The compounds to be tested were diluted in the medium without serum and added to the bacteria (100 μl per well). Plates were incubated at 37° C., and bacterial growth was monitored over time by reading the optical density at 490 nm using a microplate reader (model 450; Bio-Rad Laboratories Inc., Hercules, Calif.). Streptococcus pneumoniae strains were grown to mid-log phase (OD620 of 0.3) and stored in 15% glycerol at […] till further use. Minimal inhibitory concentration (MIC) of antibiotics was determined according to standard procedures. Bacteria were diluted 10-fold in Mueller-Hinton medium (BD, Sparks, Md.) and added to 96-well sterile ELISA plates (150 μl per well). The compounds to be tested were diluted in the medium without serum and added to the bacteria (150 μl per well). Plates were incubated overnight at 37° C. in 5% CO2. The MIC was defined as the lowest concentration of compound at which no growth was visible with the naked eye.
# Escherichia coli = assay: Bacterial growth assay and MIC determination, E. coli; type: cell-based; settings: serum −
# Method: as §1
# Staphylococcus aureus = assay: Bacterial growth assay and MIC determination, S. aureus; type: cell-based; settings: for antibiotic activity when tested in the presence of serum: 10% serum
# Method: as §1
# [1] = tested on: Staphylococcus epidermidis; assay: Bacterial growth assay and MIC determination, S. epidermidis; type: cell-based
# Method: as §1
# [2] = tested on: Plasmodium falciparum NF54 parasites; assay: P. falciparum asexual blood stage replication assay (SYBR Green); type: cell-based; settings: NF54, 10% human serum, 72 incubation
# Method: Compounds were tested on their ability to inhibit replication of the human malaria parasite Plasmodium falciparum. To this end, Plasmodium falciparum NF54 parasites were cultured in RPMI1640 medium supplemented with 367 μM hypoxanthine, 25 mM HEPES, 25 mM sodiumbicarbonate and 10% human type A serum in an automated large-scale culture system as described before (Transactions of the Royal Society of Tropical Medicine and Hygiene, 1982. 76: p. 812-818). Compounds were diluted in DMSO and subsequently in culture medium to reach a DMSO concentration of 0.2%. 50 μl of diluted compound was transferred to a black 96 well plate. A culture of P. falciparum strain NF54 malaria parasites was diluted to a parasitaemia of 0.5% and a hematocrit of 3%. 50 μl of this diluted culture was added to each well in the 96 well plate._The outermost wells of the plate were filled with sterile water to prevent evaporation. The established antimalarial dihydroartemisinin (DHA) in DMSO acted as a positive control (MIN signal), and 0.1% DMSO acted as a negative control (MAX signal). The plates were incubated for 72 at 37° C., 3% 02, 5% CO2, 93% N2. Changes in parasite replication relative to the controls were monitored using the DNA-marker SYBR Green as described previously (Antimicrob Agents Chemother 48:1803-6). Data were analyzed by logistic regression using the formula: Y=Bottom+(Top-Bottom)/(1+10̂((Log IC50−X)*HillSlope)) and a least squares method to find the best fit.
# Using similar methods, IC50 values were determined for a variety of inverted pantothenamides, as listed in table 1 (see section: ‘Detailed description of the invention’)
# Streptococcus pneumoniae = assay: MIC determination, S. pneumoniae; type: cell-based; settings: for MIC: Streptococcus pneumoniae
# Method: Streptococcus pneumoniae strains were grown to mid-log phase (OD620 of 0.3) and stored in 15% glycerol at […] till further use. Minimal inhibitory concentration (MIC) of antibiotics was determined according to standard procedures. Bacteria were diluted 10-fold in Mueller-Hinton medium (BD, Sparks, Md.) and added to 96-well sterile ELISA plates (150 μl per well). The compounds to be tested were diluted in the medium without serum and added to the bacteria (150 μl per well). Plates were incubated overnight at 37° C. in 5% CO2. The MIC was defined as the lowest concentration of compound at which no growth was visible with the naked eye.
# [3] = Pharmacokinetic study in rats; type: in vivo
# Method: To address the question if increased stability would also lead to improved bioavailability in vivo, a pharmacokinetic study was performed. Briefly, the pantothenamides N5-Pan (an antibacterial compound) and CXP18.3-002 (an antimalarial compound), and their corresponding inverted amides CXP18.6-013 and CXP18.6-006 were administered to rats at 50 mg/kg dissolved in saline. Blood samples were collected from 3 rats before the experiment and at 0.25, 0.5, 1, 2, 4, 6, 8, 12 and 24 h. The concentrations of the compounds were analyzed by LC-MS/MS (AB Sciex API-4000 system). Data were analyzed by the Non-compartmental analysis tool of Phoenix WinNonlin (Version 6.3).
# [4] = tested on: P. falciparum gametocytes; assay: microbe, parasite or virus in culture; type: cell-based, Plasmodium falciparum; settings: Plasmodium falciparum; 72 hour incubation; read-out: Gametocyte viability (pLDH) IC50
# Method: Compounds were tested for their ability to affect the viability of gametocytes, the sexually committed blood stages of P. falciparum that underlie transmission to the mosquito vector. To this end, two different assays were performed. The first assay monitored pLDH activity as a measure of viability of gametocytes (J Antimicrob Chemother. 2013 September; 68(9):2048-58). The second assay monitored the ability of gametocytes to form a female gamete by detection of the gamete-specific marker Pfs25. Plasmodium falciparum NF54 parasites were cultured in RPMI1640 medium supplemented with 367 μM hypoxanthine, 25 mM HEPES, 25 mM sodiumbicarbonate and 10% human type A serum in an automated large-scale culture system as described before (Transactions of the Royal Society of Tropical Medicine and Hygiene, 1982. 76: p. 812-818). Cultures were treated with 50 mM N-acetyl-D-glucosamine from day 4 till day 9 to kill asexual parasites. On day 11 gametocytes were isolated by discontinuous 63% Percoll gradient centrifugation. Compounds were diluted in DMSO and subsequently in culture medium to reach a DMSO concentration of 0.2%. To measure the effect of compounds of pLDH activity, gametocytes were seeded at a density of 3.5×10^4 gametocytes per well in a black 384 well plate in 30 μl of culture medium, and 30 μl of diluted compound was added. Following a 72 hour incubation at 37° C., 98% humidity, 93% N2, 4% CO2 and 3% O2, gametocyte viability was measured by a modified plasmodium lactate dehydrogenase assay by using resazurin as a substrate as previously described (Nature, 2013. 504(7479): p. 248-53). Assays were performed in quadruplicate (two different plates with two different gametocyte batches) and all plates included controls MIN (1 μM DHA), MAX (0.1% DMSO) and a serial dilution of reference compound dihydroartemisinin (DHA).
# [5] = tested on: P. falciparum gametocytes; assay: Gametocyte female gametogenesis capacity assay (Pfs25 AlphaLISA); type: cell-based; settings: Plasmodium falciparum; 72 hours incubation, Table 3; read-out: Gametocyte gametogenesis capacity (Pfs25) IC50
# Method: To monitor compound effects on the ability of a gametocyte to form a female gamete, day 11 (stage IV) gametocytes were seeded at a density of 4×10^5 gametocytes per well in a V-bottom plate in 50 μl culture medium. 50 μl of diluted compound was added to the gametocytes (0.1% DMSO final concentration) and plates were incubated for 72 hours at 37° C., 98% humidity, 93% N2, 4% CO2 and 3% O2. Subsequently, gametogenesis was induced by adding xanthurenic acid to a final concentration of 40 μM and plates were incubated for 16 hours at 20° C. Gametes were detected in a homogeneous proximity immunoassay on basis of Pfs25 expression by use of AlphaLISA technology (Perkin Elmer). All steps were performed at 20° C. Gametes were washed twice with PBS, lysed for 15 min in 10 μl 10 mM Tris pH 8.0/1% laurylsarcosyl/1 mM phenylmethanesulfonyl fluoride and combined with 10 μl 5 nM biotinylated mouse anti-Pfs25 monoclonal antibody 32F6244 in a white 384 well optiplate (Perkin Elmer). After 1 hour incubation 15 μl of 33 μg/ml acceptorbeads coated with mouse anti-Pfs25 monoclonal antibody 32F81 were added. After 1 hour incubation, 15 μl 33 μg/ml Streptavidin-conjugated donorbeads were added. Finally, after 1 hour incubation luminescence signals were monitored at the 615 nm emission wavelength following excitation at 680 nm using a fluorometer (Biotek Synergy 2). All compounds were tested in duplicate (24 hr) or triplicate (1 and 72 hr). Controls included MIN (0.1 μM epoxomicin) and MAX (0.1% DMSO). Data were analyzed by logistic regression using the formula: Y=Bottom+(Top−Bottom)/(1+10̂((Log IC50−X)*HillSlope)) and a least squares method to find the best fit.
# [6] = tested on: Plasmodium berghei strain 676c11 (PbGFP-Luc); assay: In vivo rodent malaria model; settings: female Wistar rats, 6 mg/kg orally three times a day, day 5-8
# Excerpt: Female mice (C57 Black 6, 9-10 weeks of age at the start of the experiment) and female rats (Wistar, 150-200 grams at the beginning of the experiment) were housed under standard conditions and experiments were approved by the institutional ethical committee on animal care and experimentation of Radboud University Medical Centre (Nijmegen).
# To test our compounds in an in vivo malaria model we used a well described rodent malaria model (Zuckerman and Yoeli, J Infect Dis. 94, 225-36). First, donor mice were infected by 0.2 ml cryopreserved infected blood stocks containing the transgenic Plasmodium berghei strain 676c11 (PbGFP-Luc). After four days the mice were sacrificed and their blood was collected. The parasitemia in the blood from the mice was calculated as percentage of infected red blood cells (RBC) by Giemsa-stained blood smears. Infected blood was diluted to 5×10^7 parasites per ml and 0.2 ml was i.p. injected in rats (inoculation of 10′ parasites per rat). Treatment with chloroquine (6 mg/kg), CXP18.6-017 (100 mg/kg) and CXP18.6-052 (100 mg/kg) started 5 days post inoculation and where given orally three times a day until day eight. From day 5 blood samples were collected and parasitemia was determined by analysis of Giemsa-stained blood smears. The infection and treatment regimes were well tolerated by the animals.
# [7] = Streptococcus pyogenes, read-out: MIC
# [8] = Escherichia coli, read-out: MIC
# [9] = Staphylococcus aureus, S. aureus, serum + (10% serum), read-out: MIC
# [10] = Staphylococcus aureus, S. aureus, serum −, read-out: MIC
# [11] = Staphylococcus aureus, Table 1, most sensitive species S. aureus (SA), read-out: MIC (μg/ml) for most sensitive bacterial species
# [12] = Staphylococcus epidermidis, S. epidermidis, serum −, read-out: MIC
# [13] = S. pneumoniae, serum −, read-out: MIC
# [14] = rat, blood, 50 mg/kg in saline, oral administration
# [15] = Staphylococcus epidermidis, Table 1, most sensitive species S. epidermidis (SE), read-out: MIC (μg/ml) for most sensitive bacterial species
SMILES,MIC (Streptococcus pyogenes; [7]) [µg/mL],MIC (Escherichia coli; [8]) [µg/mL],MIC (Staphylococcus aureus; [9]) [µg/mL],MIC (Staphylococcus aureus; [10]) [µg/mL],"MIC [1, 12] [µg/mL]",IC50 [2] [µM],MIC (Streptococcus pneumoniae; [13]) [µg/mL],"MIC [1, 15] [µg/mL]",also measured
CCCCCC(=O)NCCNC(=O)[C@H](O)C(C)(C)CO [CXP18.6-013],2,> 256,–,32,1,0.63,4,1,"AUC(0-inf) [3, 14]: 11600 ng·h/mL; Cmax [3, 14]: 12100 ng/mL; Tmax [3, 14]: 0.33 h; half-life ([3]; rat, blood, 50 mg/kg in saline, oral administration, elimination phase): 5.9 h; activity of inverted pantothenamide compared to the parent compound ([1]; S. epidermidis): gain of antimicrobial activity; MIC (Streptococcus pneumoniae; Table 1, S. pneumoniae (SPn), read-out: MIC (μg/ml) for most sensitive bacterial species): 4 µg/mL"
Cc1ccc(CCC(=O)NCCNC(=O)[C@H](O)C(C)(C)CO)c(F)c1 [CXP18.6-064],–,–,–,–,–,0.042,–,2,IC50 [4]: 42 nM; IC50 [5]: 17 nM
"CCCCCCCCCNC(=O)CCNC(=O)[C@H](O)C(C)(C)CO [Compound N9-Pan, reference compound]",–,–,–,–,–,–,–,–,"MIC (Streptococcus pyogenes): 16 µg/mL; MIC (Escherichia coli): >256 µg/mL; MIC (Staphylococcus aureus; S. aureus, serum + (10% serum)): >256 µg/mL; MIC (Staphylococcus aureus; S. aureus, serum −): 0.5 µg/mL; MIC ([1]; S. epidermidis, serum −): 0.25 µg/mL"
"CCN(CC)CCCC(C)Nc1ccnc2cc(Cl)ccc12 (stereo not shown) [chloroquine, reference compound]",–,–,–,–,–,–,–,–,parasitemia [6]: reduced parasitemia to nearly undetectable levels within 3 days

# Further lines, with some results ahead:
MIC (Streptococcus pyogenes; [7]) [µg/mL],MIC (Escherichia coli; [8]) [µg/mL],MIC (Staphylococcus aureus; [9]) [µg/mL],MIC (Staphylococcus aureus; [10]) [µg/mL],"MIC [1, 12] [µg/mL]",IC50 [2] [µM],MIC (Streptococcus pneumoniae; [13]) [µg/mL],"MIC [1, 15] [µg/mL]",SMILES,also measured
32,> 256,4,1,16,0.34,> 32,–,CCCCCCCC(=O)NCCNC(=O)[C@H](O)C(C)(C)CO [CXP18.6-012],antibiotic activity when tested in the presence of serum (Staphylococcus aureus; S. aureus): retained activity; MIC (Staphylococcus aureus; [11]): 1 µg/mL; activity of inverted pantothenamide compared to the parent compound (Streptococcus pneumoniae; S. pneumoniae): loss of activity
32,> 256,1,1,1,7.5,> 32,1,CCCCCCCCCC(=O)NCCNC(=O)[C@H](O)C(C)(C)CO [CXP18.6-014],antibiotic activity when tested in the presence of serum (Staphylococcus aureus; S. aureus): retained activity; MIC (Staphylococcus aureus; [11]): 1 µg/mL
–,64,–,8,32,–,0.25,–,"CCCCCNC(=O)CCNC(=O)[C@H](O)C(C)(C)CO [Compound N5-Pan, N-pentylpantothenamide, reference compound]",detection in blood following oral administration ([3]; 50 mg/kg): could not or hardly be detected
2,128,> 256,0.5,0.5,–,2,–,"CCCCCCCNC(=O)CCNC(=O)[C@H](O)C(C)(C)CO [Compound N7-Pan, N-heptylpantothenamide, reference compound]","MIC (Staphylococcus aureus; S. aureus, serum + (10% serum)): >256 µg/mL"
